# Experiments:
# [1] = skin sensitisation, as stated in the description; cited from earlier work
# [2] = tested on: polypeptide of sequence SEQ ID NO: 18 (Ac-RFAAKAA-NH2); assay: HPLC test of % fixing of test compound on polypeptide (positive control peptide); type: binding; details: 0.5 mM polypeptide, 5 mM test compound, 100 mM ammonium acetate buffer pH 10.2, 30° C., 4 hours, darkness
# Protocol: (§1) A test with 0.5 mM of polypeptide and 5 mM of test compound is carried out under the following conditions:
# (§2) The reaction mixture containing 40 μl of peptide solution (1.25 mM stock solution in a 100 mM ammonium acetate buffer at pH 10.2 and the polypeptide of sequence SEQ ID NO: 18, SEQ ID NO: 7 in which X1, X2, X3 and X4 each represents a lysine, or SEQ ID NO: 8 in which X1, X2, X3 and X4 each represents a lysine), 35 μl of 100 mM ammonium acetate buffer solution, at pH 10.2, 20 μl of acetonitrile and 5 μl of solution to be tested (100 mM stock solution in acetonitrile or a 50% acetonitrile 50% DMSO mixture) was prepared and then stirred.
# The sequence SEQ ID NO: 18, which is not a lipocalin derivative, was used as a positive control. This sequence corresponds to the following sequence:
# (§3) The reaction mixture was then put to incubate at 30° C. for 4 hours and in darkness.
# (§4) HPLC analysis was then carried out at a gradient of 10% to 45% of buffer B (acetonitrile+0.08% of trifluoroacetic acid (TFA)) in 20 minutes (buffer A: water+0.1% of TFA), rate 1 ml/minute. Detection was carried out under UV at 230 nm.
# (§5) The control without allergen consisted of 40 μl of buffer solution.
# [3] = biological target: T1, polypeptide SEQ ID NO: 8 in which X1, X2, X3 and X4 each represents a lysine (Mus musculus, UniProt O09114); assay: HPLC test of % fixing of test compound on polypeptide; type: binding; details: 5 mM test compound
# T1 construct: made in house; host or cells: chemical peptide synthesis (Fmoc)
# T1 sequence (O09114 148-173 limits assumed): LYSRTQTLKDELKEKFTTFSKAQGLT
# Protocol: as §1, §2, §3, §4, §5
# (§6) The buffer used was 100 Mm TRIS-HCl at pH 8.3, pH 9.2 and pH 8.8.
# (§7) The buffer used was TRIS-HCl at 100 mM.
# (§8) A test with twice 0.5 mM of polypeptides of sequences SEQ ID NO: 19 and SEQ ID NO: 1 wherein X1, X2, X3 and X4 each represent a lysine, and having an NH2 group at its C-Terminal end, and SEQ ID NO: 8 wherein X1, X2, X3 and X4 each represent a lysine, and 5 mM of test compound, was carried out in accordance with the same protocol as that described for example 1.
# [4] = biological target: T2, polypeptide SEQ ID NO: 7 in which X1, X2, X3 and X4 each represents a lysine (Mus musculus, UniProt P11672, DEL176-176); assay: as above; type: binding; details: 0.5 mM polypeptide, 5 mM test compound, 100 mM ammonium acetate buffer pH 10.2, 30° C., 4 hours, darkness
# T2 construct: made in house; host or cells: chemical peptide synthesis (Fmoc)
# T2 sequence (P11672 with tags, fused parts or gaps DEL176-176 limits assumed): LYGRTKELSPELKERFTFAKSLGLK
# Protocol: as §1, §2, §3, §4, §5
# [5] = tested on: polypeptide of sequence SEQ ID NO: 19 (Ac-RFAACAA-NH2); assay: HPLC test of % fixing of test compound on polypeptide (positive control peptide); type: binding; details: 5 mM test compound
# Protocol: as §1, §2, §3, §4, §5
# A test with 0.5 mM of polypeptide of sequence […] and 5 mM of test compound was carried in accordance with the same protocol as that described for example 1.
# The sequence SEQ ID NO: 19, which is not a lipocalin derivative, was used as a positive control. This sequence corresponds to the following sequence:
# The buffer used was 100 mM TRIS-HCl at pH 8.3.
# as §6, §7, §8
# [6] = tested on: polypeptide SEQ ID NO: 1 wherein X1, X2, X3 and X4 each represent a lysine, having an NH2 group at its C-Terminal end; assay: HPLC test of % fixing of test compound on polypeptide; type: binding
# Protocol: as §1, §2, §3, §4, §5, §8, §7
# It should be noted, in the case of the tests of SEQ ID NO: 1, the signal was disturbed, preventing measurements greater than 82-83% fixing. These values consequently represent a minimum.
# A coelution of the polypeptide with the allergens cinnamic aldehyde and 1,2-Benzisothiazolin-3-one was observed.
smiles,measurement,setting,value
"CCCCCCCCCCCCOC(=O)c1cc(O)c(O)c(O)c1 [LG, lauryl gallate]",sensitising capacity (sensitiser class),[1],strong sensitisers
same,"% fixing, SEQ ID NO: 18",[2],62%
same,"% fixing, SEQ ID NO: 8 (X1-X4 lysine)","[3]; 0.5 mM polypeptide, 100 mM ammonium acetate buffer pH 10.2, 30° C., 4 hours, darkness",63%
same,"% fixing (mean), SEQ ID NO: 8 (X1-X4 lysine)","[3]; Example 4, twice 0.5 mM polypeptide, TRIS-HCl 100 mM, 'Fixing' = not quantifiable",62%
same,"% fixing, SEQ ID NO: 8 (X1-X4 lysine)","[3]; Example 5, twice 0.5 mM polypeptide, TRIS-HCl 100 mM, 'Fixing' = not quantifiable",62%
same,"% fixing, SEQ ID NO: 7 (X1-X4 lysine)",[4],100%
same,"% fixing, SEQ ID NO: 19","[5]; Example 2, 0.5 mM polypeptide, 100 mM TRIS-HCl pH 8.3",100%
same,"% fixing (mean), SEQ ID NO: 19","[5]; Example 4, twice 0.5 mM polypeptide, TRIS-HCl 100 mM",100%
same,"% fixing, SEQ ID NO: 19","[5]; Example 5, twice 0.5 mM polypeptide, TRIS-HCl 100 mM",100%
same,"% fixing, SEQ ID NO: 1 (X1-X4 lysine, NH2 group at C-Terminal end)","[6]; Example 5, 5 mM test compound, TRIS-HCl 100 mM, signal disturbed, preventing measurements greater than 82-83% fixing, these values represent a minimum",41.5%
same,precipitation of test compound during measurements with SEQ ID NO: 1,"[6]; Example 5 conditions, explains the medium fixing results",very greatly precipitated
